IC50 data for 31 compounds are collected here from US20240207263A1, “SELECTIVE MODULATORS OF ATAXIA TELA[…] (ATM) KINASE AND USES THEREOF” (priority 2021, published 2024).

The structures appear in SMILES notation.

This experiment concerns the target ATM (Homo sapiens (Human), UniProt Q13315). As to the kind of experiment: biochemical. The conditions noted are these: read-out: ATM IC50. The class given is biochemical. The text has this: Assay a): ATM Biochemical Potency
Data was collected by Caliper.

Sequence of ATM (Q13315 whole entry, looked up): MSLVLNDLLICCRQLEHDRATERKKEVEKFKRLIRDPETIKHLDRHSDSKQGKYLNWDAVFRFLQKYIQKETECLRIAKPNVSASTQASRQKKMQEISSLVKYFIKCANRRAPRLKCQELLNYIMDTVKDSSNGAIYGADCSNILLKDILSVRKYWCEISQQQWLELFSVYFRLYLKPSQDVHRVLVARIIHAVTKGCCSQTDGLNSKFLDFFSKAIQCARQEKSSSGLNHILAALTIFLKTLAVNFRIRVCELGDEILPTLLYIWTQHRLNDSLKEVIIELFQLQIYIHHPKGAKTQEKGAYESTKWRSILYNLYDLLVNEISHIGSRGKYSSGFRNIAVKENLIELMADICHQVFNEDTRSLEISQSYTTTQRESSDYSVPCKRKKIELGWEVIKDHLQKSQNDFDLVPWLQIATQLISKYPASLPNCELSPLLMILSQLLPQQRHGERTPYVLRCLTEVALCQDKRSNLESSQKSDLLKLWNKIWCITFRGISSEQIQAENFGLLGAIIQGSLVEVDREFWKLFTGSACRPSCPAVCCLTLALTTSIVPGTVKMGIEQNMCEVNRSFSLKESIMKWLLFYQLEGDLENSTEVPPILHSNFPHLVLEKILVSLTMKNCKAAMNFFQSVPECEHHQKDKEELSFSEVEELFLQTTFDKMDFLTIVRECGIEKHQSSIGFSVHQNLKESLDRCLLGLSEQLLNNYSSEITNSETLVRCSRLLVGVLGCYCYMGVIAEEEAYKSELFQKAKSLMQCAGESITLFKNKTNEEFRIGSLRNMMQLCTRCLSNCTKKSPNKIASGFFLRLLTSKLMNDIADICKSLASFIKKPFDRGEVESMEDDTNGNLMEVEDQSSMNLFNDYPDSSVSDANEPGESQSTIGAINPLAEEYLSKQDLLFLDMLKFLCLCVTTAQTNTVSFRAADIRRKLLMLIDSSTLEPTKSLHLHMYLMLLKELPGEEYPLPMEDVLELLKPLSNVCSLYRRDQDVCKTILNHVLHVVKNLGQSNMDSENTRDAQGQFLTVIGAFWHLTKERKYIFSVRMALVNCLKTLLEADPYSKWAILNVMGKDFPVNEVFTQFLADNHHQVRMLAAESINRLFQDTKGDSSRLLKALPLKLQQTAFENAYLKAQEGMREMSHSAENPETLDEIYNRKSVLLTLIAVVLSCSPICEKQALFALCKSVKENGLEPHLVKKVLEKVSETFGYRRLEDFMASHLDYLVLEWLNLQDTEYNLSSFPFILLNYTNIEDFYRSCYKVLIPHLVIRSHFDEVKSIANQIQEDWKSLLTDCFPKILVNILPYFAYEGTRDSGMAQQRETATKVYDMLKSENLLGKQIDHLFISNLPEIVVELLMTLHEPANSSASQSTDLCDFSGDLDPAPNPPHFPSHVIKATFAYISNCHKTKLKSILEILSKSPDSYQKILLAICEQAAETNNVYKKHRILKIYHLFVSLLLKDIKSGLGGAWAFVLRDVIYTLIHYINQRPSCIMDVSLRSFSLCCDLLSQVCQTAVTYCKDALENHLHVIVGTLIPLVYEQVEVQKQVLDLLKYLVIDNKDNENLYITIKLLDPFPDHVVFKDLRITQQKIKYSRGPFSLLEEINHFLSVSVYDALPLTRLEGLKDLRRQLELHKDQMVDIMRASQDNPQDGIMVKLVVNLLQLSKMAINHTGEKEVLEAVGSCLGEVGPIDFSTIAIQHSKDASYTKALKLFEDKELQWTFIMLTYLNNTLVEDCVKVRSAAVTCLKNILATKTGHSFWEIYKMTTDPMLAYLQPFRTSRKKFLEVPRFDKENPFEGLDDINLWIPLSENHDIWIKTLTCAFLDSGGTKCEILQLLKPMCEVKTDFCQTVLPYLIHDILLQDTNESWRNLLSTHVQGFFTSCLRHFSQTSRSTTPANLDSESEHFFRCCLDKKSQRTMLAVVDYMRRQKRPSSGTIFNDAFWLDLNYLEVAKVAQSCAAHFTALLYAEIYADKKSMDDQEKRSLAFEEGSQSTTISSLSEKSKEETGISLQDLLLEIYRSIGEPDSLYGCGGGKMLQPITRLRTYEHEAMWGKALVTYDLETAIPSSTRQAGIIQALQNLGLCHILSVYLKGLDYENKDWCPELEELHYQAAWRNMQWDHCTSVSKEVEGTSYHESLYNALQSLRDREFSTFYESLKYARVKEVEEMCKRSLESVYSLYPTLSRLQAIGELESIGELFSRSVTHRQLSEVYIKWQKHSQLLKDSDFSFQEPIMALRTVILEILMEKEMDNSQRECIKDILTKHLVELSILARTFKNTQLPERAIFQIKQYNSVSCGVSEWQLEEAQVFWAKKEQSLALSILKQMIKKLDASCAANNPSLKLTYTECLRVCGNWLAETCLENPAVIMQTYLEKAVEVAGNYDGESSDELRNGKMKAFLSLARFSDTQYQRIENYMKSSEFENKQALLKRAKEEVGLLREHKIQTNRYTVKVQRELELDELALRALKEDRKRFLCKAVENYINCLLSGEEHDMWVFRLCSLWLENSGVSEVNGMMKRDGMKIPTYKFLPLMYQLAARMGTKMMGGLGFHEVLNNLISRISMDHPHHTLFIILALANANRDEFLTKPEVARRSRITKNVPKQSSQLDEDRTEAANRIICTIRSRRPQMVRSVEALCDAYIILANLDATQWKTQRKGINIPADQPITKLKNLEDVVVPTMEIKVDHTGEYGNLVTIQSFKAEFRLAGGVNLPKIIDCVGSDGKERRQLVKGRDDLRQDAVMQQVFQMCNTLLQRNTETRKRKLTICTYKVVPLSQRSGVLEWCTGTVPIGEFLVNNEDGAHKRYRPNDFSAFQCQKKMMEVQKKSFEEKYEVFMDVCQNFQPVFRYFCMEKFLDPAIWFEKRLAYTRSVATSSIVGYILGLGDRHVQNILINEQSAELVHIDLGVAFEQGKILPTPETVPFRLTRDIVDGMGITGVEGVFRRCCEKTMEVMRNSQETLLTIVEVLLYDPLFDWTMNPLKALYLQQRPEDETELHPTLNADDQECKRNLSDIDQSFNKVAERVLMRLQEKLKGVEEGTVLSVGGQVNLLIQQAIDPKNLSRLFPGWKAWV

As for `CC(OCCN1CC2C(C1)C2(F)F)c1ccc(-c2ccc3nnc4c(c3c2)n(C(C)C)c(=O)n4C)cn1` (stereo in doubt) [Example 70, 8-(6-((1S)-1-(2-(6,6-difluoro-3-azabicyclo[3.1.0]hexan-3-yl)ethoxy)ethyl)pyridin-3-yl)-1-isopropyl-3-methyl-1H-imidazo[4,5-c]cinnolin-2(3H)-one], the IC50 was 295 nM.

`CC(OCCN1CC2C(C1)C2(F)F)c1ccc(-c2ccc3nnc4c(c3c2)n(C(C)C)c(=O)n4C)cn1` (stereo in doubt) [Example 71, 8-(6-((1R)-1-(2-(6,6-difluoro-3-azabicyclo[3.1.0]hexan-3-yl)ethoxy)ethyl)pyridin-3-yl)-1-isopropyl-3-methyl-1H-imidazo[4,5-c]cinnolin-2(3H)-one]: the IC50 was determined as 9.3 nM.

With `CC(C)n1c(=O)n(C)c2nnc3ccc(-c4ccc(COCCN(C)C)nc4)cc3c21` [Example 2, 8-(6-((2-(dimethylamino)ethoxy)meth-yl)pyridin-3-yl)-1-isopropyl-3-methyl-1H-imidazo[4,5-c]cinnolin-2(3H)-one], the IC50 was 53 nM.

For `CC(C)n1c(=O)n(C)c2nnc3ccc(-c4ccc(COCCN5CCCCC5)nc4)cc3c21` [Example 3, 1-isopropyl-3-methyl-8-(6-((2-(piperidin-1-yl)ethoxy)methyl)pyridin-3-yl)-1H-imidazo[4,5-c]cinnolin-2(3H)-one], the IC50 came to 36 nM.

In the case of `CC(C)n1c(=O)n(C)c2nnc3ccc(-c4ccc(COCCN5CCCC5)nc4)cc3c21` [Example 4, 1-isopropyl-3-methyl-8-(6-((2-(pyrrolidin-1-yl)ethoxy)methyl)pyridin-3-yl)-1H-imidazo[4,5-c]cinnolin-2(3H)-one], the IC50 was 63 nM.

Consider `COCCOCc1ccc(-c2ccc3nnc4c(c3c2)n(C(C)C)c(=O)n4C)cn1` [Example 6, 1-isopropyl-8-(6-((2-methoxyethoxy)methyl)py-ridin-3-yl)-3-methyl-1H-imidazo[4,5-c]cinnolin-2(3H)-one], for which the IC50 came out at 469 nM.

As to `CC(C)n1c(=O)n(C)c2nnc3ccc(-c4ccc(COC5CCN(C)CC5)nc4)cc3c21` [Example 7, 1-isopropyl-3-methyl-8-(6-(((1-methylpiperidin-4-yl)oxy)methyl)pyridin-3-yl)-1H-imidazo[4,5-c]cinnolin-2(3H)-one], the IC50 came to 227 nM.

For `CC(C)n1c(=O)n(C)c2nnc3ccc(-c4ccc(COCCCN(C)C)nc4)cc3c21` [Example 8, 8-(6-((3-(dimethylamino)propoxy)methyl)pyridin-3-yl)-1-isopropyl-3-methyl-1H-imidazo[4,5-c]cinnolin-2(3H)-one], the IC50 is 98 nM.

For the compound `CC(C)n1c(=O)n(C)c2nnc3ccc(-c4ccc(COCC5CCN(C)CC5)nc4)cc3c21` [Example 9, 1-isopropyl-3-methyl-8-(6-(((1-methylpiperidin-4-yl)methoxy)methyl)pyridin-3-yl)-1H-imidazo[4,5-c]cinnolin-2(3H)-one], the IC50 turned out to be 180 nM.

For the compound `CC(C)n1c(=O)n(C)c2nnc3ccc(-c4ccc(COCC5CCCN5C)nc4)cc3c21` (stereo not shown) [Example 10, 1-isopropyl-3-methyl-8-(6-(((1-methylpyrrolidin-2-yl)methoxy)methyl)pyridin-3-yl)-1H-imidazo[4,5-c]cinnolin-2(3H)-one], the IC50 is 105 nM.

`CC(C)n1c(=O)n(C)c2nnc3ccc(-c4ccc(COC5CCN(C)C5)nc4)cc3c21` (stereo not shown) [Example 11, 1-isopropyl-3-methyl-8-(6-(((1-methylpyrrolidin-3-yl)oxy)methyl)pyridin-3-yl)-1H-imidazo[4,5-c]cinnolin-2(3H)-one]: the IC50 was found to be 123 nM.

For `CC(C)n1c(=O)n(C)c2nnc3ccc(-c4ccc(COCCCN5CC6CC6C5)nc4)cc3c21` (stereo not shown) [Example 12, 8-(6-((3-(3-azabicyclo[3.1.0]hexan-3-yl)propoxy)methyl)pyridin-3-yl)-1-isopropyl-3-methyl-1H-imidazo[4,5-c]cinnolin-2(3H)-one], the IC50 was found to be 47 nM.

Regarding `CC(C)n1c(=O)n(C)c2nnc3ccc(-c4ccc(COC5CCCN(C)C5)nc4)cc3c21` (stereo not shown) [Example 13, 1-isopropyl-3-methyl-8-(6-(((1-methylpiperidin-3-yl)oxy)methyl)pyridin-3-yl)-1H-imidazo[4,5-c]cinnolin-2(3H)-one], the IC50 worked out at 144 nM.

With `CC(C)n1c(=O)n(C)c2nnc3ccc(-c4ccc(COC5CC(N(C)C)C5)nc4)cc3c21` (stereo not shown) [Example 14, 8-(6-((3-(dimethylamino)cyclobuto-xy)methyl)pyridin-3-yl)-1-isopropyl-3-methyl-1H-imidazo[4,5-c]cinnolin-2(3H)-one], the concentration for half-maximal inhibition (IC50) is 68 nM.

Take `CC(C)n1c(=O)n(C)c2nnc3ccc(-c4ccc(COC5CN(C)C5)nc4)cc3c21` [Example 15, 1-isopropyl-3-methyl-8-(6-(((1-methylazetidin-3-yl)oxy)methyl)pyridin-3-yl)-1H-imidazo[4,5-c]cinnolin-2(3H)-one]: the half-inhibitory concentration (IC50) stood at 134 nM.

Turning to `CC(COCc1ccc(-c2ccc3nnc4c(c3c2)n(C(C)C)c(=O)n4C)cn1)N1CC2CC2C1` (stereo not shown) [Example 16, 8-(6-((2-(3-azabicyclo[3.1.0]hexan-3-yl)propoxy)methyl)pyridin-3-yl)-1-isopropyl-3-methyl-1H-imidazo[4,5-c]cinnolin-2(3H)-one], the IC50 was 201 nM.

With `CC(C)n1c(=O)n(C)c2nnc3ccc(-c4ccc(COCC(C)(C)N5CC6CC6C5)nc4)cc3c21` (stereo not shown) [Example 17, 8-(6-((2-(3-azabicyclo[3.1.0]hexan-3-yl)-2-methylpropoxy)methyl)pyridin-3-yl)-1-isopropyl-3-methyl-1H-imidazo[4,5-c]cinnolin-2(3H)-one], the IC50 turned out to be 464 nM.

For the compound `CC(C)n1c(=O)n(C)c2nnc3ccc(-c4ccc(COCC5(N6CC7CC7C6)CC5)nc4)cc3c21` (stereo not shown) [Example 18, 8-(6-(((1-(3-azabicyclo[3.1.0]hexan-3-yl)cyclopropyl)methoxy)methyl)pyridin-3-yl)-1-isopropyl-3-methyl-1H-imidazo[4,5-c]cinnolin-2(3H)-one], the IC50 is 377 nM.

`CC(C)n1c(=O)n(C)c2nnc3ccc(-c4ccc(COCC5CCCN(C)C5)nc4)cc3c21` (stereo not shown) [Example 19, 1-isopropyl-3-methyl-8-(6-(((1-methylpiperidin-3-yl)methoxy)methyl)pyridin-3-yl)-1H-imidazo[4,5-c]cinnolin-2(3H)-one]: the IC50 is 99 nM.

As for `CC(C)n1c(=O)n(C)c2nnc3ccc(-c4ccc(COCC5CCN(C)C5)nc4)cc3c21` (stereo not shown) [Example 20, 1-isopropyl-3-methyl-8-(6-(((1-methylpyrrolidin-3-yl)methoxy)methyl)pyridin-3-yl)-1H-imidazo[4,5-c]cinnolin-2(3H)-one], the IC50 was 51 nM.

`CC(CN1CC2CC2C1)OCc1ccc(-c2ccc3nnc4c(c3c2)n(C(C)C)c(=O)n4C)cn1` (stereo not shown) [Example 21, 8-(6-(((1-(3-azabicyclo[3.1.0]hexan-3-yl)propan-2-yl)oxy)methyl)pyridin-3-yl)-1-isopropyl-3-methyl-1H-imidazo[4,5-c]cinnolin-2(3H)-one]: the IC50 came out at 139 nM.

As to `CC(C)n1c(=O)n(C)c2nnc3ccc(-c4ccc(COC5(CN6CC7CC7C6)CC5)nc4)cc3c21` (stereo not shown) [Example 23, 8-(6-((1-(3-azabicyclo[3.1.0]hexan-3-ylmethyl)cyclopropoxy)methyl)pyridin-3-yl)-1-isopropyl-3-methyl-1H-imidazo[4,5-c]cinnolin-2(3H)-one], the 50% inhibitory concentration (IC50) worked out at 420 nM.

For `CC(C)n1c(=O)n(C)c2nnc3ccc(-c4ccc(COCCN5CCC(C#N)CC5)nc4)cc3c21` [Example 24, 1-(2-((5-(1-isopropyl-3-methyl-2-oxo-2,3-dihydro-1H-imidazo[4,5-c]cinnolin-8-yl)pyridin-2-yl)methoxy)ethyl)pyiperidine-4-carbonitrile], the IC50 amounted to 26 nM.

For the compound `CC(C)n1c(=O)n(C)c2nnc3ccc(-c4ccc(COCCN5CCC(C#N)C5)nc4)cc3c21` (stereo not shown) [Example 25], the IC50 came to 71 nM.

In the case of `CC(C)n1c(=O)n(C)c2nnc3ccc(-c4ccc(COCCN5CCC6(CC6)C5)nc4)cc3c21` [Example 26, 8-(6-((2-(5-azaspiro[2.4]heptan-5-yl)ethoxy)methyl)pyridin-3-yl)-1-isopropyl-3-methyl-1H-imidazo[4,5-c]cinnolin-2(3H)-one], the IC50 stood at 14 nM.

For the compound `COC1CCN(CCOCc2ccc(-c3ccc4nnc5c(c4c3)n(C(C)C)c(=O)n5C)cn2)CC1` [Example 27, 1-isopropyl-8-(6-((2-(4-methoxypiperidin-1-yl)ethoxy)methyl)pyridin-3-yl)-3-methyl-1H-imidazo[4,5-c]cinnolin-2(3H)-one], the 50% inhibitory concentration (IC50) was 92 nM.

With `CC(C)n1c(=O)n(C)c2nnc3ccc(-c4ccc(COCCN5CC[C@@H](F)C5)nc4)cc3c21` [Example 28, (R)-8-(6-((2-(3-fluoropyrrolidin-1-yl)ethoxy)methyl)pyridin-3-yl)-1-isopropyl-3-methyl-1H-imidazo[4,5-c]cinnolin-2(3H)-one], the IC50 stood at 81 nM.

For `CC(C)n1c(=O)n(C)c2nnc3ccc(-c4ccc(COCCN5CCC[C@@H]5C)nc4)cc3c21` [Example 29, (S)-1-isopropyl-3-methyl-8-(6-((2-(2-methylpyrrolidin-1-yl)ethoxy)methyl)pyridin-3-yl)-1H-imidazo[4,5-c]cinnolin-2(3H)-one], the concentration for half-maximal inhibition (IC50) is 68 nM.

Turning to `CC(C)n1c(=O)n(C)c2nnc3ccc(-c4ccc(COCCN5CCC(F)(F)CC5)nc4)cc3c21` [Example 30, 8-(6-((2-(4,4-difluoropiperidin-1-yl)ethoxy)methyl)pyridin-3-yl)-1-isopropyl-3-methyl-1H-imidazo[4,5-c]cinnolin-2(3H)-one], the IC50 was 62 nM.

Take `CC(C)n1c(=O)n(C)c2nnc3ccc(-c4ccc(COCCN5CCN(C)CC5)nc4)cc3c21` [Example 32, 1-isopropyl-3-methyl-8-(6-((2-(4-methylpiperazin-1-yl)ethoxy)methyl)pyridin-3-yl)-1H-imidazo[4,5-c]cinnolin-2(3H)-one]: the IC50 was 304 nM.

Turning to `CC(C)n1c(=O)n(C)c2nnc3ccc(-c4ccc(COCCN5CCOCC5)nc4)cc3c21` [Example 33, 1-isopropyl-3-methyl-8-(6-((2-morpholinoethoxy)methyl)pyridin-3-yl)-1H-imidazo[4,5-c]cinnolin-2(3H)-one], the IC50 came out at 58 nM.
